This assay deals with MRC5. The assay is described as follows: MTT cell viability, human fetal lung fibroblasts MRC5. The class given is cell-based. The note with it: 72 h. As to the method: All the gold(III) dithiocarbamate compounds display remarkable cell killing potential in a panel of breast, ovarian, lung and leukemia cancers. Preliminary studies focused on different cancer cell lines (MDA-MB-231, MDA-MB-175, and A2780), an immortalized normal retinal epithelial cell line (RPE-NEO) and human fetal lung fibroblasts (MRC5) (Fig. S111–S129 ^†). These adherent cells were exposed to a serial-diluted concentration of all ten compounds for 72 h. The cells were subsequently treated with 3-(4,5-dimethylthiazol-2-yl)-2,5-diphenyltetrazolium bromide (MTT) solutions, dissolved with DMSO and the absorbance at 570 nm was measured with a plate-reader.
In Vitro Biological Assays
Cell Culture. All cell lines were purchased from ATCC and routinely grown in a humidified incubator at 37 °C with 5-10% CO 2. MDA-MB-231, MDA-MB-175, MRC5, RPE-NEO, H460, and K562 were grown in DMEM supplemented with 10% FBS, 1% amphotericin and 1% penicillin/streptomycin. A2780 cells were grown in RPMI supplemented with 10% FBS, 1% amphotericin, and 1% penicillin/streptomycin, and 4 mM glutamine. All supplements along with PBS and trypsin-EDTA were purchased from Corning Inc. and used as is. […]
Cell Viability of 1a-1e and 2a-2e (Adherent Cell Lines). The cell viability of all 10 complexes were performed in MDA-MB-231, MDA-MB-175, A2780, RPE-NEO and MRC5. The cell viability of compound 2a was also determined in H460. Cells were grown to confluency and trypsin was added to detach and harvest cells. The cells were washed with 2 mL of PBS and suspended in 10 mL of the appropriate media. The cells were centrifuged at 2000 rpm for 5 minutes and the pellet washed with 2 mL of PBS then suspended in 5 mL of the appropriate […]
media. The cells were plated at a density of 2,000 cells/well in a 96-well clear bottom plate and allowed to adhere overnight at 37 °C with 5-10% CO 2. The compounds were prepared as a stock in DMSO and used fresh. The compounds were added at seven concentrations with a 3x serial dilution starting at 50 µM for the highest concentration and incubated at 37 °C for 72 h with 5-10% CO 2. The medium was removed and a solution of MTT (100 µL, prepared by dissolving MTT at 5 mg/mL and diluting by 10x with DMEM) was added to each well and incubated for 4 h at 37 ° C with 5-10% CO 2. The dye was removed from each well and 100 µL of DMSO was added to induce cell lysis. The plates were read using a Genios plate reader (λ = 570 nm). The experiment was performed in triplicate and data are plotted as the mean ± s.e.m. (n = 3). Data for 2a can be found in the main text (Figure 6) and the other complexes can be seen in the supplementary figures (S111 – S129). […]
Cells were grown to confluency and centrifuged at 2000 rpm for 5 minutes to collect the cell pellet. The cells were washed with 5 mL of PBS, suspended in 5 mL of DMEM, and centrifuged again at 2000 rpm for 5 minutes to collect the pellet. The pellet was then washed with 2 mL of PBS and suspended in 5 mL of DMEM. The cells were plated at density of 2,000 cells/well in a 96-well white bottom plate. 2a was prepared as a stock solution […]
10% CO 2. The cells were removed from the incubator and allowed to rest at room temperature for 30 minutes. To each designated well was then added 20 µL of CellTiter-Glo solution and orbitally shaken for 5 minutes and the luminescence (1000 ms integration and 150 ms gain) acquired on a Genios plate reader. The experiment was performed in triplicate. Data are plotted […]
Apoptosis Analysis. […]
A stock of 2a was prepared fresh in DMSO and added to the desired well at a concentration of 1 µM with a final volume of 2.5 mL and incubated for 4 h at 37 °C. A stock of H2O2 was prepared in PBS and the cells treated at a final concentration of 2 mM for 1 hour as a […]

We go through 8 molecules from paper PMC8162438, “Cancer cell-selective modulation of mitochondrial respiration and metabolism by potent organogold(III) dithiocarbamates” (Chemical Science, 2020).

Regarding `CC[N+](CC)=C1[S][Au-2]2([S]1)[c]1ccccc1Cc1cccc[n+]12.F[P-](F)(F)(F)(F)F` (centres unmarked) [2b], the IC50 is more than 50 µM.
The result for `Brc1ccc(N2CC[N+](=C3[S][Au-2]4([S]3)[c]3ccccc3Cc3cccc[n+]34)CC2)cc1.F[P-](F)(F)(F)(F)F` (centres unmarked) [2d] reads more than 50 µM; that for `COc1ccc(N2CC[N+](=C3[S][Au-2]4([S]3)[c]3ccccc3C(=O)c3cccc[n+]34)CC2)cc1.F[P-](F)(F)(F)(F)F` (centres unmarked) [1e], more than 50 µM.
Consider `COc1ccc(N2CC[N+](=C3[S][Au-2]4([S]3)[c]3ccccc3Cc3cccc[n+]34)CC2)cc1.F[P-](F)(F)(F)(F)F` (centres unmarked) [2e], for which the IC50 was more than 50 µM.
For `F[P-](F)(F)(F)(F)F.c1cc[c]2c(c1)Cc1cccc[n+]1[Au-2]21[S]C(=[N+]2CCCCC2)[S]1` (centres unmarked) [2c] the value was more than 50 µM.
The molecule `F[P-](F)(F)(F)(F)F.O=C1c2cccc[c]2[Au-2]2([S]C(=[N+]3CCN(c4ccc(Br)cc4)CC3)[S]2)[n+]2ccccc21` (centres unmarked) [1d] registered an IC50 of more than 50 µM.
For `CC[N+](CC)=C1[S][Au-2]2([S]1)[c]1ccccc1C(=O)c1cccc[n+]12.F[P-](F)(F)(F)(F)F` (centres unmarked) [1b] the value was more than 50 µM; for `F[P-](F)(F)(F)(F)F.O=C1c2cccc[c]2[Au-2]2([S]C(=[N+]3CCCCC3)[S]2)[n+]2ccccc21` (centres unmarked) [1c], more than 50 µM.

By IC50 is commonly meant the concentration at which inhibition is half-maximal. A low value points to greater potency in that assay.
